We go through three molecules from patent US20150245612A1, “ACTIVE INGREDIENT FOR CONTROLLING SPIDER MITES” (BAYER CROPSCIENCE AG, priority 2014, published 2015).

The structures appear in SMILES notation.

Holding throughout (assay type): in vivo
One experiment concerns Eutetranychus anneckei. Put plainly: Eutetranychus anneckei test; outdoor spray treatment (EUTEOR), orange trees. The note with it: EUTEOR on C. sinensis. From the text:
Eutetranychus anneckei Test; Outdoor Spray Treatment (EUTEOR)
(§1) To produce an appropriate active ingredient formulation, 1 part by weight of active ingredient is mixed with the stated amounts of water to the desired concentration. Added to the spray liquor is 0.1% a.i. Crovol.
Three two-year-old orange trees (Citrus sinensis) affected by all stages of the oriental spider mite (Eutetranychus anneckei) are sprayed with an active ingredient formulation of each desired concentration. Application is effected with a motorized backpack sprayer. In accordance with common practice, the water application rate is 1000 l/Ha. One spray application is conducted in each case.
(§2) After the desired time, the remaining mites per leaf are counted and calculated as the efficacy by the Abbott formula:
(§3) B=treated plots K=untreated control plots

The next experiment concerns Phyllocoptruta oleivora. Put plainly: Phyllocoptruta oleivora test; outdoor spray treatment (PHYUOL), orange trees. Particulars: PHYUOL on C. sinensis.
Description: Phyllocoptruta oleivora Test; Outdoor Spray Treatment (PHYUOL)
as §1
Three 15-year-old orange trees (Citrus sinensis) affected by all stages of the citrus rust mite (Phyllocoptruta oleivora) are sprayed with an active ingredient formulation of each desired concentration. Application is effected with a motorized backpack sprayer. In accordance with common practice, the water application rate is 1000 l/Ha. One spray application is conducted in each case.
as §2, §3

Experiment [1] deals with Panonychus citri. Put plainly: Panonychus citri test; outdoor spray treatment (METTCI), satsuma trees. Particulars: METTCI on C. unshiu.
Description: (§4) Panonychus citri Test; Outdoor Spray Treatment (METTCI)
as §1
Three 5-year-old satsuma trees (Citrus unshiu) affected by all stages of the citrus red mite (Panonychus citri) are sprayed with an active ingredient formulation of each desired concentration. Application is effected with a motorized backpack sprayer. In accordance with common practice, the water application rate is 1850 l/Ha. One spray application is conducted in each case.
as §2, §3

A further experiment relates to Brevipalpus phoenicis. Put plainly: Brevipalpus phoenicis test; outdoor spray treatment (BRVPPH), orange trees. The note with it: BRVPPH on C. sinensis.
Description: Brevipalpus phoenicis Test; Outdoor Spray Treatment (BRVPPH)
as §1
Three eight-year-old orange trees (Citrus sinensis) affected by all stages of the false spider mite (Brevipalpus phoenicis) are sprayed with an active ingredient formulation of each desired concentration. Application is effected with a motorized backpack sprayer. In accordance with common practice, the water application rate is 1000 l/Ha. One spray application is conducted in each case.
as §2, §3

Experiment [2] concerns Panonychus citri. Put plainly: Panonychus citri test; outdoor spray treatment (METTCI), lemon trees. Particulars: METTCI on C. limon.
Description: as §4, §1
Three two-year-old lemon trees (Citrus limon) affected by all stages of the citrus red mite (Panonychus citri) are sprayed with an active ingredient formulation of each desired concentration. Application is effected with a motorized backpack sprayer. In accordance with common practice, the water application rate is 1000 l/Ha. One spray application is conducted in each case.
as §2, §3

Experiment [3] has as its system Panonychus citri. Put plainly: Panonychus citri test; outdoor spray treatment (METTCI), orange trees. Particulars: METTCI on C. sinensis.
Description: Panonychus citri test; outdoor spray treatment (METTCI)
To produce an appropriate active ingredient formulation, 1 part by weight of active ingredient is mixed with the stated amounts of water to the desired concentration. Added to the spray liquor is 0.1% a.i. rapeseed oil methyl ester.
Three two-year-old orange trees (Citrus sinensis) affected by all stages of the citrus red mite (Panonychus citri) are sprayed with an active ingredient formulation of each desired concentration. Application is effected with a motorized backpack sprayer. In accordance with common practice, the water application rate is 1000 l/Ha. One spray application is conducted in each case.
as §2, §3

Setting [4] is: 100 g ai/ha/mch, + Crovol 0.1%, 7 Dat.
The mark [5] stands for this setting: 100 g ai/ha/mch, + Crovol 0.1%, 14 Dat.

On to `Cn1nc(C(F)(F)C(F)(F)F)c(C(F)(F)F)c1C(=O)Nc1ccc(Cl)c(C(=O)NCc2ccccc2)c1` [Compound (I)], for which the “Efficacy (% Abbott)” value was 99 % Abbott with Eutetranychus anneckei (100 g ai/ha/mch, + Crovol 0.1%, 8 Dat); 99 % Abbott in the experiment on Eutetranychus anneckei (100 g ai/ha/mch, + Crovol 0.1%, 16 Dat); 100 % Abbott in the experiment with Eutetranychus anneckei (100 g ai/ha/mch, + Crovol 0.1%, 22 Dat); 98 % Abbott in the experiment on Eutetranychus anneckei (100 g ai/ha/mch, + Crovol 0.1%, 30 Dat); 93 % Abbott with Eutetranychus anneckei (100 g ai/ha/mch, + Crovol 0.1%, 36 Dat); 36 % Abbott with Phyllocoptruta oleivora (75 g ai/ha/mch, + Crovol 0.1%, 5 Dat). Also, the “Efficacy (% Abbott)” value in the experiment with Phyllocoptruta oleivora (75 g ai/ha/mch, + Crovol 0.1%, 13 Dat) came out at 45 % Abbott; in the experiment on Phyllocoptruta oleivora (75 g ai/ha/mch, + Crovol 0.1%, 19 Dat) it was 64 % Abbott; in the experiment with Phyllocoptruta oleivora (75 g ai/ha/mch, + Crovol 0.1%, 27 Dat), 72 % Abbott; with Phyllocoptruta oleivora (100 g ai/ha/mch, + Crovol 0.1%, 5 Dat), 77 % Abbott; in the experiment on Phyllocoptruta oleivora (100 g ai/ha/mch, + Crovol 0.1%, 13 Dat), 84 % Abbott; with Phyllocoptruta oleivora (100 g ai/ha/mch, + Crovol 0.1%, 19 Dat) it was 94 % Abbott. The “Efficacy (% Abbott)” value in the experiment with Phyllocoptruta oleivora (100 g ai/ha/mch, + Crovol 0.1%, 27 Dat) is given as 96 % Abbott; in the experiment on Panonychus citri [1] (100 g ai/ha/mch, + Crovol 0.1%, 4 Dat), 100 % Abbott; with Panonychus citri [1] (setting [4]) it was 98.1 % Abbott; in the experiment on Panonychus citri [1] (setting [5]), 97.6 % Abbott; in the experiment on Brevipalpus phoenicis (100 g ai/ha/mch, + Crovol 0.1%, 3 Dat) it was 88.4 % Abbott; in the experiment on Brevipalpus phoenicis (setting [4]), 95 % Abbott. The “Efficacy (% Abbott)” value in the experiment on Brevipalpus phoenicis (setting [5]) is listed as 100 % Abbott; in the experiment with Brevipalpus phoenicis (100 g ai/ha/mch, + Crovol 0.1%, 21 Dat) it was 100 % Abbott; with Brevipalpus phoenicis (100 g ai/ha/mch, + Crovol 0.1%, 49 Dat), 92.7 % Abbott; in the experiment with Brevipalpus phoenicis (100 g ai/ha/mch, + Crovol 0.1%, 60 Dat), 100 % Abbott; in the experiment with Panonychus citri [2] (100 g ai/ha/mch, + Crovol 0.1%, 6 Dat), 90 % Abbott; with Panonychus citri [2] (100 g ai/ha/mch, + Crovol 0.1%, 23 Dat), 99 % Abbott. Moreover, the “Efficacy (% Abbott)” value in the experiment with Panonychus citri [3] (50 g ai/ha/mch, + RME 0.1%, 1 Dat) stood at 85 % Abbott; in the experiment on Panonychus citri [3] (50 g ai/ha/mch, + RME 0.1%, 5 Dat), 99 % Abbott; with Panonychus citri [3] (100 g ai/ha/mch, + RME 0.1%, 1 Dat), 99 % Abbott; in the experiment on Panonychus citri [3] (100 g ai/ha/mch, + RME 0.1%, 5 Dat), 100 % Abbott.
In the case of `Cc1nn(C)c(/C(OC(=O)C(C)(C)C)=C(\C#N)c2ccc(C(C)(C)C)cc2)c1C` [Cyenopyrafen, reference compound], the “Efficacy (% Abbott)” value was found to be 100 % Abbott with Eutetranychus anneckei (150 g ai/ha/mch, 8 Dat); 96 % Abbott in the experiment on Eutetranychus anneckei (150 g ai/ha/mch, 16 Dat); 100 % Abbott with Eutetranychus anneckei (150 g ai/ha/mch, 22 Dat); 83 % Abbott in the experiment on Eutetranychus anneckei (150 g ai/ha/mch, 30 Dat); 63 % Abbott in the experiment with Eutetranychus anneckei (150 g ai/ha/mch, 36 Dat); 32 % Abbott in the experiment on Phyllocoptruta oleivora (150 g ai/ha/mch, 5 Dat). In addition, the “Efficacy (% Abbott)” value is 29 % Abbott in the experiment with Phyllocoptruta oleivora (150 g ai/ha/mch, 13 Dat); 31 % Abbott in the experiment on Phyllocoptruta oleivora (150 g ai/ha/mch, 19 Dat); 32 % Abbott in the experiment on Phyllocoptruta oleivora (150 g ai/ha/mch, 27 Dat); 74.4 % Abbott in the experiment with Brevipalpus phoenicis (150 g ai/ha/mch, 3 Dat); 92.5 % Abbott in the experiment on Brevipalpus phoenicis (150 g ai/ha/mch, 7 Dat); 94.7 % Abbott in the experiment with Brevipalpus phoenicis (150 g ai/ha/mch, 14 Dat). Moreover, the “Efficacy (% Abbott)” value in the experiment with Brevipalpus phoenicis (150 g ai/ha/mch, 21 Dat) is 100 % Abbott; in the experiment on Brevipalpus phoenicis (150 g ai/ha/mch, 49 Dat), 78 % Abbott; with Brevipalpus phoenicis (150 g ai/ha/mch, 60 Dat), 97.6 % Abbott.
Turning to `CCC(C)(C)C(=O)OC1=C(c2ccc(Cl)cc2Cl)C(=O)OC12CCCCC2` [Spirodiclofen, reference compound], the “Efficacy (% Abbott)” value with Panonychus citri [1] (144 g ai/ha/mch, 4 Dat) stood at 70.7 % Abbott; in the experiment with Panonychus citri [1] (144 g ai/ha/mch, 7 Dat), 85.2 % Abbott; with Panonychus citri [1] (144 g ai/ha/mch, 14 Dat), 78 % Abbott; with Panonychus citri [2] (48 g ai/ha/mch, 6 Dat) it was 58 % Abbott; in the experiment on Panonychus citri [2] (48 g ai/ha/mch, 23 Dat) it was 100 % Abbott; in the experiment on Panonychus citri [3] (48 g ai/ha/mch, 1 Dat) it was 29 % Abbott. Also, the “Efficacy (% Abbott)” value in the experiment with Panonychus citri [3] (48 g ai/ha/mch, 5 Dat) is recorded as 90 % Abbott.
